Legend:
Assay in all cases: relative viability (nuclei count vs DMSO), 5 days (fraction); higher = more cells survive
Selisistat + Vorinostat = compound: C1CC(C2=C(C1)C3=C(N2)C=CC(=C3)Cl)C(=O)N [Selisistat] + O=C(CCCCCCC(=O)Nc1ccccc1)NO [Vorinostat] (partner 1 µM)
In short: (§1)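 Cells from lung cancer lines were seeded into 1536-well plates and, one day later, dosed by pin tool. Treatments were either a single drug or a fixed dose of an anchor drug with five library-drug doses (not always all listed) in √10 steps. After 5 days, nuclei were stained in a one-step fixation (final 0.05% Triton X-100, 1% formaldehyde, 1 ug/ml Hoechst) and counted on 4× images, and relative viability is the treated-to-vehicle nuclei ratio, as the median of duplicate plates.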

Selisistat + Phenformin = compound: C1CC(C2=C(C1)C3=C(N2)C=CC(=C3)Cl)C(=O)N [Selisistat] + N=C(N)NC(=N)NCCc1ccccc1 [Phenformin] (partner 250 µM)
In short: as §1

Serdemetan + Alpelisib = compound: c1ccc2c(CCNc3ccc(Nc4ccncc4)cc3)c[nH]c2c1 [Serdemetan] + Cc1nc(NC(=O)N2CCC[C@H]2C(N)=O)sc1-c1ccnc(C(C)(C)C(F)(F)F)c1 [Alpelisib] (partner 2 µM)
In short: as §1

Selisistat + Linsitinib = compound: C1CC(C2=C(C1)C3=C(N2)C=CC(=C3)Cl)C(=O)N [Selisistat] + C[C@]1(O)C[C@@H](c2nc(-c3ccc4ccc(-c5ccccc5)nc4c3)c3c(N)nccn32)C1 [Linsitinib] (partner 1 µM)
In short: as §1

UMC-11 showed a relative viability (Selisistat + Vorinostat; first compound 0.4 µM) of 0.456, a relative viability (Selisistat + Vorinostat; first compound 1.265 µM) of 0.477 and a relative viability (Selisistat + Vorinostat; first compound 4 µM) of 0.531. For the same cell line, the relative viability (Selisistat + Vorinostat; first compound 12.65 µM) was 0.504, the relative viability (Selisistat + Vorinostat; first compound 40 µM) was 0.593 and the relative viability (Selisistat + Phenformin; first compound 0.4 µM) was 0.337. For the same cell line, the relative viability (Selisistat + Phenformin; first compound 1.265 µM) was 0.303, the relative viability (Selisistat + Phenformin; first compound 4 µM) was 0.302 and the relative viability (Selisistat + Phenformin; first compound 12.65 µM) was 0.288. The relative viability (Selisistat + Phenformin; first compound 40 µM) was 0.303, the relative viability (Serdemetan + Alpelisib; first compound 0.04 µM) was 0.914 and the relative viability (Serdemetan + Alpelisib; first compound 0.1265 µM) was 0.988. The relative viability (Serdemetan + Alpelisib; first compound 0.4 µM) was 1.01, the relative viability (Serdemetan + Alpelisib; first compound 1.265 µM) was 0.751 and the relative viability (Serdemetan + Alpelisib; first compound 4 µM) was 0.769. For the same cell line, the relative viability (Selisistat + Linsitinib; first compound 0.4 µM) was 0.962, the relative viability (Selisistat + Linsitinib; first compound 1.265 µM) was 0.935 and the relative viability (Selisistat + Linsitinib; first compound 4 µM) was 1.06. It also gave a relative viability (Selisistat + Linsitinib; first compound 12.65 µM) of 0.948 and a relative viability (Selisistat + Linsitinib; first compound 40 µM) of 1.03.

Source: the supplement of paper PMC10307832
